Measurements taken from patent US20260232682A1, “GSPT1 DEGRADER COMPOUNDS” (Captor Therapeutics S.A., priority 2023, published 2026).
pKi: −log10 of the molar value.

How the values were obtained:
[1] = molecular target: CRBN/DDB1 protein complex (Homo sapiens, UniProt Q96SW2); experiment: CRBN displacement TR-FRET assay; settings: Thalidomide-Red tracer, 6×His-CRBN/DDB1; read-out: CRBN binding Ki
Summary of the method: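 Test compound at various concentrations competed with 6.8 nM Thalidomide-Red tracer for 5 nM 6×His-CRBN/DDB1, detected with 0.5 nM anti-His-Eu cryptate in buffer with 1 mM DTT and 1% DMSO. Incubation ran 180 min at room temperature with a time-resolved fluorescence read-out. IC50 values were converted to Ki by Cheng–Prusoff using tracer Kd and protein and tracer concentrations.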

[2] = molecular target: T1, [IKZF1 ZF2]-[compound]-[CRBN/DDB1] ternary complex (Homo sapiens, UniProt Q13422+Q96SW2); experiment: AlphaLISA assay for off-target recruitment detection, IKZF1 ZF2; type: binding; settings: 1 μM compound; normalized to Lenalidomide; read-out: Normalized ternary complex response, IKZF1 ZF2
T1 construct: IKZF1 ZF2
Summary of the method: (§1)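 Neo-substrate with 40 μg/ml donor beads and 200 nM 6×His-CRBN/DDB1 with 40 μg/ml anti-His acceptor beads were each prepared in PBS pH 7.4 with Tween-20 and 1 mM DTT, preincubated 30 min at RT, then mixed. Compounds at 2% DMSO were incubated 30 min at 25 °C, read at 680/615 nm, and normalised between DMSO background and reference glue maximum.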

[3] = molecular target: T2, [SALL4 ZF2]-[compound]-[CRBN/DDB1] ternary complex (Homo sapiens, UniProt Q96SW2+Q9UJQ4); experiment: AlphaLISA assay for off-target recruitment detection, SALL4 ZF2; type: binding; settings: 1 μM compound; normalized to Lenalidomide; read-out: Normalized ternary complex response, SALL4 ZF2
T2 construct: SALL4 ZF2
Summary of the method: as §1

[4] = molecular target: T3, [IKZF2 ZF2]-[compound]-[CRBN/DDB1] ternary complex (Homo sapiens, UniProt Q96SW2+Q9UKS7); experiment: AlphaLISA assay for off-target recruitment detection, IKZF2 ZF2; type: binding; settings: 1 μM compound; normalized to Helios modulator; read-out: Normalized ternary complex response, IKZF2 ZF2
T3 construct: IKZF2 ZF2
Summary of the method: as §1

[5] = molecular target: [GSPT1]-[compound of formula (I)]-[CRBN/DDB1] complex (Homo sapiens, UniProt P15170+Q96SW2); experiment: AlphaLISA ternary complex formation assay (GSPT1); type: binding; settings: 0.5 h; 1 μM compound; normalized to reference compound CC-885; read-out: Normalized AlphaLISA ternary complex average signal at 1 μM molecule
Summary of the method: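 Biotinylated GSPT1 on streptavidin donor beads and 6×His-CRBN/DDB1 on anti-His acceptor beads (each 200 nM before mixing) in HBS pH 7.4 with 0.1% Tween-20 and 1 mM DTT, 2% DMSO final, 30 min at 25 °C. AlphaLISA luminescence is normalized between DMSO background and the reference compound's maximum.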

[6] = test system: GSPT1-HiBiT HEK293 cells; experiment: Cell Viability-CTG assay accompanying the Nano-Glo HiBiT assay; type: cell-based; settings: 6 hours treatment, viability of GSPT1-HiBiT HEK293 cells
Summary of the method: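 HEK293 GSPT1-HiBiT cells treated as for the HiBiT assay, incubated 6 h at 37 °C/5% CO2, then equilibrated to RT. Viability read by CellTiter-Glo luminescence after 4 min shaking and 8 min dark incubation; Mean Minimum values derived by non-linear regression of RLU data.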

T2 sequence (Q9UJQ4 410-432 limits assumed): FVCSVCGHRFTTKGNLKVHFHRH
T2 sequence (Q96SW2 whole entry): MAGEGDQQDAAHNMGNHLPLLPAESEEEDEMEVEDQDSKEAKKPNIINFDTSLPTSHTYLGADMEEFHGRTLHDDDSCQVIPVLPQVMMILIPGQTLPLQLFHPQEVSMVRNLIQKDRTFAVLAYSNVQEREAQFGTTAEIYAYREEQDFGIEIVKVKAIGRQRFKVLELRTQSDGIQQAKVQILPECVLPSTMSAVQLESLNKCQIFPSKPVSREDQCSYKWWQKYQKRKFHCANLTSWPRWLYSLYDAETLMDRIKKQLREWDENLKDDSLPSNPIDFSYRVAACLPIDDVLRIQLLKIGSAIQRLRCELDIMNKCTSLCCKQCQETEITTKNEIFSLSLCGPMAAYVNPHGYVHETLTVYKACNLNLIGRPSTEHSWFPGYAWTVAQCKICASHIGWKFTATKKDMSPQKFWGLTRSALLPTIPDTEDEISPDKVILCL
T2 sequence (Q16531 whole entry partner): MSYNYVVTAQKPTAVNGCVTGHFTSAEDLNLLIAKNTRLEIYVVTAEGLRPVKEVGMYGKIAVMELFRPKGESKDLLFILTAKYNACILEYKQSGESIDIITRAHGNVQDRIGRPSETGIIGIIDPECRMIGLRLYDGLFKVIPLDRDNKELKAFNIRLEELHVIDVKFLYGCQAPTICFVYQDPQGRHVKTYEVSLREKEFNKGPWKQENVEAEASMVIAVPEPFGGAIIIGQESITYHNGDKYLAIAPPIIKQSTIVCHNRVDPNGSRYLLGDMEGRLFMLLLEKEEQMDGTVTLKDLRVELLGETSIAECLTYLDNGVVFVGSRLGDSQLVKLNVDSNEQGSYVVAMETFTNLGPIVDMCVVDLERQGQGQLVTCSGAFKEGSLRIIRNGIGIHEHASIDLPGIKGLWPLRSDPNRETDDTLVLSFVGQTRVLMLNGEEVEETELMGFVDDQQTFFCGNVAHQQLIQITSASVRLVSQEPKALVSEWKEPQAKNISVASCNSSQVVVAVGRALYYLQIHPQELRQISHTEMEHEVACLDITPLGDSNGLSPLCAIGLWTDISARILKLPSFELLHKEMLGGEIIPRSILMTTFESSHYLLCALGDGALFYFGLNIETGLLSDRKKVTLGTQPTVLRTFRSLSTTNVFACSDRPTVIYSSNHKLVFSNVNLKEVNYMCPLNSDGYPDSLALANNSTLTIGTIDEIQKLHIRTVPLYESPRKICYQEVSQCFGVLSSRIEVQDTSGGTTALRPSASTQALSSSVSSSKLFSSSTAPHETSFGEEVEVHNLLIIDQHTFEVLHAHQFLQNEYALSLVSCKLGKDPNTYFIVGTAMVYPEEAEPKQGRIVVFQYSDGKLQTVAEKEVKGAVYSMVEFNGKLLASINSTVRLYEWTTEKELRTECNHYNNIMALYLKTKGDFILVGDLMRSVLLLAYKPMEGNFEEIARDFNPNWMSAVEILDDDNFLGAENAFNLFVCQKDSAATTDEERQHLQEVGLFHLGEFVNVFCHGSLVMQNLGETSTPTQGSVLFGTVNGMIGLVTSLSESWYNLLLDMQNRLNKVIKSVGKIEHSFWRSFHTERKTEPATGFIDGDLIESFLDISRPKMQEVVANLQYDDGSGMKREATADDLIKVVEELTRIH
[GSPT1]-[compound of formula (I)]-[CRBN/DDB1] complex, sequence (P15170 whole entry): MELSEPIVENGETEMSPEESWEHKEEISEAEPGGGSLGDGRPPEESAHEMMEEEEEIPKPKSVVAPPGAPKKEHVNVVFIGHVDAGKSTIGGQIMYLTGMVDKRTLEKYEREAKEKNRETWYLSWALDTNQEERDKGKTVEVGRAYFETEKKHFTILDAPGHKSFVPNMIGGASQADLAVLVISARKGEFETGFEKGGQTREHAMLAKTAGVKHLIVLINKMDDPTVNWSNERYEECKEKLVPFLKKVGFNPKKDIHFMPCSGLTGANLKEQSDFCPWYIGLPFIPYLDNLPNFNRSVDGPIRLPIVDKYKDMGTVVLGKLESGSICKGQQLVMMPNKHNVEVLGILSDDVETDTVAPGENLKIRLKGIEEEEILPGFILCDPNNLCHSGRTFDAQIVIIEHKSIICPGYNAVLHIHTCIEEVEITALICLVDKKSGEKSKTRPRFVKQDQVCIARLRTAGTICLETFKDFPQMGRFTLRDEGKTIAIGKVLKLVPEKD
[GSPT1]-[compound of formula (I)]-[CRBN/DDB1] complex, sequence (Q96SW2 whole entry): as the sequence (Q96SW2 whole entry) above
[GSPT1]-[compound of formula (I)]-[CRBN/DDB1] complex, sequence (Q16531 whole entry partner): as the sequence (Q16531 whole entry partner) above
T3 sequence (Q9UKS7 140-162 limits assumed): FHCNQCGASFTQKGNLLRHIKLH
T3 sequence (Q96SW2 whole entry): as the sequence (Q96SW2 whole entry) above
T3 sequence (Q16531 whole entry partner): as the sequence (Q16531 whole entry partner) above
T1 sequence (Q13422 145-167 limits assumed): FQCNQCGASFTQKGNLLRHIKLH
T1 sequence (Q96SW2 whole entry): as the sequence (Q96SW2 whole entry) above
T1 sequence (Q16531 whole entry partner): as the sequence (Q16531 whole entry partner) above
CRBN/DDB1 protein complex, sequence (Q96SW2 whole entry, species assumed): as the sequence (Q96SW2 whole entry) above
CRBN/DDB1 protein complex, sequence (Q16531 whole entry partner, species assumed): as the sequence (Q16531 whole entry partner) above

| Compound | pKi [1] | activation at 1 µM [2] [%] | activation at 1 µM [3] [%] | activation at 1 µM [4] [%] | activation at 1 µM [5] [%] | CTG assay Mean minimum [6] |
| --- | --- | --- | --- | --- | --- | --- |
| Cc1nc2cc(COC(=O)Nc3cc(C(F)(F)F)no3)ccc2cc1C1CCC(=O)NC1=O (stereo not drawn) [Compound 71, (3-(2,6-dioxopiperidin-3-yl)-2-methylquinolin-7-yl)methyl (3-(trifluoromethyl)isoxazol-5-yl)carbamate] | < 6.00 | < 10 | < 10 | < 10 | > 50 | ++++ (++++≥75% of viability of the HiBiT-GSPT1 HEK293 cells) |
| Cc1nc2cc(COC(=O)Nc3cc(C(C)(C)C)no3)ccc2cc1N1CCC(=O)NC1=O [Compound 72, (3-(2,4-dioxotetrahydropyrimidin-1(2H)-yl)-2-methylquinolin-7-yl)methyl (3-(tert-butyl)isoxazol-5-yl)carbamate] | 6.00 to 6.30 | < 10 | < 10 | < 10 | 10 to 50 | ++++ (++++≥75% of viability of the HiBiT-GSPT1 HEK293 cells) |
| Cc1ccc(NC(=O)OCc2ccc3cc(C4(F)CCC(=O)NC4=O)c(C)nc3c2)cc1Cl (stereo not drawn) [Compound 74, (3-(3-fluoro-2,6-dioxopiperidin-3-yl)-2-methylquinolin-7-yl)methyl (3-chloro-4-methylphenyl)carbamate] | < 6.00 | < 10 | < 10 | < 10 | 10 to 50 | ++++ (++++≥75% of viability of the HiBiT-GSPT1 HEK293 cells) |
| Cc1nc2cc(COC(=O)Nc3cc(C(C)(C)C)n[nH]3)ccc2cc1C1CCC(=O)NC1=O (stereo not drawn) [Compound 75, (3-(2,6-dioxopiperidin-3-yl)-2-methylquinolin-7-yl)methyl (3-(tert-butyl)-1H-pyrazol-5-yl)carbamate] | < 6.00 | < 10 | < 10 | < 10 | > 50 | ++++ (++++≥75% of viability of the HiBiT-GSPT1 HEK293 cells) |
| [2H]C([2H])(OC(=O)Nc1cc(C(C)(C)C)no1)c1ccc2cc(C3CCC(=O)NC3=O)c(C)nc2c1 (stereo not drawn) [Compound 82, (3-(2,6-dioxopiperidin-3-yl)-2-methylquinolin-7-yl)methyl-d2 (3-(tert-butyl)isoxazol-5-yl)carbamate] | > 6.30 | < 10 | < 10 | < 10 | > 50 | ++++ (++++≥75% of viability of the HiBiT-GSPT1 HEK293 cells) |

Further lines, with some results ahead:

| pKi [1] | activation at 1 µM [2] [%] | activation at 1 µM [3] [%] | activation at 1 µM [4] [%] | activation at 1 µM [5] [%] | Compound | CTG assay Mean minimum [6] |
| --- | --- | --- | --- | --- | --- | --- |
| 6.00 to 6.30 | < 10 | < 10 | < 10 | > 50 | Cc1nc2cc(COC(=O)Nc3nc(C(C)(C)C)no3)ccc2cc1C1CCC(=O)NC1=O (stereo not drawn) [Compound 80, (3-(2,6-dioxopiperidin-3-yl)-2-methylquinolin-7-yl)methyl (3-(tert-butyl)-1,2,4-oxadiazol-5-yl)carbamate] | ++++ (++++≥75% of viability of the HiBiT-GSPT1 HEK293 cells) |
| > 6.30 | < 10 | < 10 | < 10 | > 50 | Cc1nc2cc(COC(=O)Nc3cc(C4(C(F)(F)F)CC4)no3)ccc2cc1C1CCC(=O)NC1=O (stereo not drawn) [Compound 81, (3-(2,6-dioxopiperidin-3-yl)-2-methylquinolin-7-yl)methyl (3-(1-(trifluoromethyl)cyclopropyl)isoxazol-5-yl)carbamate] | ++++ (++++≥75% of viability of the HiBiT-GSPT1 HEK293 cells) |
